Experimental data from US10155004B2, “17-hydroxy-17-pentafluoroethyl-estra-4,9(10)-dien-11-aryl derivatives, method of production thereof and use thereof for the treatment of diseases” (BAYER INTELLECTUAL PROPERTY GMBH, priority 2009, dated 2018).

What was measured:
[1] = biological target: T1, human progesterone receptor A (Homo sapiens, UniProt P06401); test: Progesterone receptor-antagonistic action in stably transfected SK-N-MC cells, MTV-LUC reporter (PR-A); type: cell-based; settings: for Progesterone receptor A (PR-A) Efficacy: antagonistic efficacy vs 0.1 nmol/l promegestone; for IC50: antagonism of 0.1 nmol/l promegestone, 24 hours, LUC reporter, read-out: Progesterone receptor A (PR-A) Potency IC50
T1 construct: expressed in transfected cells; host or cells: SK-N-MC human neuroblastoma cells, stably transfected
T1 sequence (P06401 1-769 isoform P06401-2): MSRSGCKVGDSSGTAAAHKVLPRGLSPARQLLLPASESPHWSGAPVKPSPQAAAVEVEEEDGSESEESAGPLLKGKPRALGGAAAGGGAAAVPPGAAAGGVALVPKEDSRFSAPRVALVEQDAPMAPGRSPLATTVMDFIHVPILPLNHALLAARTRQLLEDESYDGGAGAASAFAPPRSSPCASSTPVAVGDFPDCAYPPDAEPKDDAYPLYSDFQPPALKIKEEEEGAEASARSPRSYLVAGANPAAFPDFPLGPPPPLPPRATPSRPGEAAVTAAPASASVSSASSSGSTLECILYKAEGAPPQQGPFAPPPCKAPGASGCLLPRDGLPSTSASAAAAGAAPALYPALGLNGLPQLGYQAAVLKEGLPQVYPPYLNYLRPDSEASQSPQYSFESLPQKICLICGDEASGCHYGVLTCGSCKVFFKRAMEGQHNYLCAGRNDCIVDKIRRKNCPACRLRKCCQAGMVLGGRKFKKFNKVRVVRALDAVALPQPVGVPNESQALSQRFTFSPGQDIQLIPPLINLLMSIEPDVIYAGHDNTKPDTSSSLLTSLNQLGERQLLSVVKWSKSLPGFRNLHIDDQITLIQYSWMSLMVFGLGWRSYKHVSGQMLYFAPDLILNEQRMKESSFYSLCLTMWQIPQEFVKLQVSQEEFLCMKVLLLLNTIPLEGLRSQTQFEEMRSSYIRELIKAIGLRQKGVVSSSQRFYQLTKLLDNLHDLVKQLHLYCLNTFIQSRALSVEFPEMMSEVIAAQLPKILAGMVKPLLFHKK
Experimental: (§1) EXAMPLE 16 PROGESTERONE RECEPTOR-ANTAGONISTIC ACTION IN STABLE TRANSFECTANTS OF HUMAN NEUROBLASTOMA CELLS (SK-N-MC CELLS) WITH THE HUMAN PROGESTERONE A OR PROGESTERONE B RECEPTOR AND AN MTV-LUC REPORTER CONSTRUCT
(§2) SK-N-MC cells (human neuroblastoma cells), which have been stably transfected with plasmids, which express the human progesterone receptor B (pRChPR-B-neo) or the human progesterone receptor A (pRChPR-A-neo) and a reporter construct (pMMTV-LUC), were incubated for 24 hours either in the absence (negative control) or in the presence of increasing amounts of the respective test compound (0.01 nmol/l, 0.1 nmol/l 1 nmol/l, 10 nmol/l, 100 nmol/l and 1 μmol/l), in order to determine the agonistic efficacy. As positive control of reporter gene induction, the cells were treated with the synthetic gestagen promegestone (0.01 nmol/l, 0.1 nmol/l, 1 nmol/l, 10 nmol/l, 100 nmol/l and 1 μmol/l). For determination of the antagonistic activity, the cells were treated with 0.1 nmol/1 promegestone and additionally with increasing amounts of the respective test compound (0.01 nmol/l, 0.1 nmol/l, 1 nmol/l, 10 nmol/l, 100 nmol/l and 1 μmol/l). The activity of the LUC reporter gene (LUC=luciferase) was determined in the cell lysates and was measured as RLU (relative light units). All measured values are given as percentage efficacy and as EC50 or IC50 concentrations.
(§3) 11β-(4-Acetylphenyl)-20,20,21,21,21-pentafluoro-17-hydroxy-19-nor-17α-pregna-4,9-dien-3-one and 20,20,21,21,21-pentafluoro-17-hydroxy-11β-[4-(hydroxyacetyl)phenyl]-19-nor-17α-pregna-4,9-dien-3-one, very potent and therefore preferred examples from WO98/34947 and WO2008/058767, were tested as comparative compounds along with the test compound.

[2] = biological target: T2, human progesterone receptor B (Homo sapiens, UniProt P06401); test: Progesterone receptor-antagonistic action in stably transfected SK-N-MC cells, MTV-LUC reporter (PR-B); type: cell-based; settings: for Progesterone receptor B (PR-B) Efficacy: antagonistic efficacy vs 0.1 nmol/l promegestone; for IC50: antagonism of 0.1 nmol/l promegestone, 24 hours, LUC reporter, read-out: Progesterone receptor B (PR-B) Potency IC50
T2 construct: expressed in transfected cells; host or cells: SK-N-MC human neuroblastoma cells, stably transfected
T2 sequence (P06401 1-933): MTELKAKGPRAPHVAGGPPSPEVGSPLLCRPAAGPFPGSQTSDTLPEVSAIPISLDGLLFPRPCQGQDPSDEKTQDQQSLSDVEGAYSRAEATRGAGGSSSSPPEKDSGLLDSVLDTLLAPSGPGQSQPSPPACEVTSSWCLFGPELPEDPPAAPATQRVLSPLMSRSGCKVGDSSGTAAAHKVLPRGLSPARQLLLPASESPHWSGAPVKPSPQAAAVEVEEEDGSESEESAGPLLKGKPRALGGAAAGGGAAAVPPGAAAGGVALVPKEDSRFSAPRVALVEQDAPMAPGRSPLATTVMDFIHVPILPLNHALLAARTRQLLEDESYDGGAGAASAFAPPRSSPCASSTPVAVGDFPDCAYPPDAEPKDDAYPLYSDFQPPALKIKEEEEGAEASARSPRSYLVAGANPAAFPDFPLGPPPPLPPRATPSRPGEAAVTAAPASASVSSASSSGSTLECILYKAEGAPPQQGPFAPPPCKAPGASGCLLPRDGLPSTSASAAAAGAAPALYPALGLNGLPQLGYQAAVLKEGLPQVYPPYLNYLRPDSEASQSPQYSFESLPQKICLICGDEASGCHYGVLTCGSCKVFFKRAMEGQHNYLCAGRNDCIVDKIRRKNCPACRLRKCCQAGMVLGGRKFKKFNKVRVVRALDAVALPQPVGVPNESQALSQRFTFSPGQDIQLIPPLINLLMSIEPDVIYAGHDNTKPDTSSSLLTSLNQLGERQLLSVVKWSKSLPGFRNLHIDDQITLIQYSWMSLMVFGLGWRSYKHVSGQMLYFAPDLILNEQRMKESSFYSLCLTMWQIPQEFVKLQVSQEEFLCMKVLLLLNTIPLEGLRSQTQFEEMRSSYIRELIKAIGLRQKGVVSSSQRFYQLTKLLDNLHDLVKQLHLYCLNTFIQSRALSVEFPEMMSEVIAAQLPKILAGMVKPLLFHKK
Experimental: as §1, §2, §3

pregnant rats = test: Abortion test on female rats (termination of early pregnancy); type: in vivo, rat; settings: d5-d7 p.c., autopsy d9 p.c.
Experimental: EXAMPLE 17 ABORTION TEST ON FEMALE RATS
The action of progesterone and of the progesterone receptor is a fundamental precondition for successful pregnancy or gestation in mammals. The progesterone-antagonistic action of the compounds according to the invention was tested on pregnant rats (6 rats per group) on day 5 to 7 post coitum with conventional housing and feeding conditions.
After successful hand mating, the pregnant animals (presence of sperm in the vaginal smear on day 1 of pregnancy=d1 p.c.) were randomized and divided into the treatment group and the control group. The animals then each received subcutaneously or orally 0.15; 0.5; 1.5 or 5 mg/kg of the test compound or 1.0 ml/kg of vehicle (benzyl benzoate/castor oil: 1+4 [v/v]) daily from day 5 to day 7 (d5-d7 p.c.).
Autopsy was carried out on day 9 (d9 p.c.). As a characteristic of progesterone receptor antagonistic action, the uterus was examined for the presence of nidation sites. Complete absence, or also the presence of pathological, haemorrhagic or otherwise abnormal nidation sites on day 9 (d9 p.c.) was assessed as abortion.

[3] = daily dose 0.5 mg/kg s.c. or p.o.
[4] = daily dose 1.5 mg/kg s.c. or p.o.
[5] = daily dose 5.0 mg/kg s.c. or p.o.

Row | SMILES | IC50 [1] | IC50 [2] | Progesterone receptor A (PR-A) Efficacy [1] | Progesterone receptor B (PR-B) Efficacy [2] | further results
1 | C[S+]([O-])c1ccc([C@H]2C[C@@]3(C)[C@@H](CC[C@@]3(O)C(F)(F)C(F)(F)F)[C@@H]3CCC4=CC(=O)CCC4=C32)cc1 (mixture of isomers) [Example 3, (11β,17β)-17-Hydroxy-11-{4-[(RS)-methylsulphinyl]phenyl}-17-(pentafluoroethy)estra-4,9-dien-3-one] | – | – | 100% | 100% | –
2 | CC(=O)c1ccc(C2CC3(C)C(CCC3(O)C(F)(F)C(F)(F)F)C3CCC4=CC(=O)CCC4=C23)cc1 (stereo not drawn) [11β-(4-Acetylphenyl)-20,20,21,21,21-pentafluoro-17-hydroxy-19-nor-17α-pregna-4,9-dien-3-one, reference compound] | 0.014 nM | 0.02 nM | – | – | –
3 | CSc1ccc([C@H]2C[C@@]3(C)[C@@H](CC[C@@]3(O)C(F)(F)C(F)(F)F)[C@@H]3CCC4=CC(=O)CCC4=C32)cc1 [Example 1, (11β,17β)-17-hydroxy-11-[4-(methylsulphanyl)phenyl]-17-(pentafluoroethyl)estra-4,9-dien-3-one] | – | – | 100% | 100% | Abortion rate (pregnant rats; [3]): 80%; Abortion rate (pregnant rats; [4]): 100%; Abortion rate (pregnant rats; [5]): 100%
4 | CCSc1ccc([C@H]2C[C@@]3(C)C(CC[C@@]3(O)C(F)(F)C(F)(F)F)C3CCC4=CC(=O)CCC4=C32)cc1 (stereo partly drawn) [Example 2, (11β,17β)-11-[4-(ethylsulphanyl)phenyl]-17-hydroxy-17-(pentafluoroethyl)estra-4,9-dien-3-one] | 0.01 nM | – | – | – | –
5 | C[C@]12C[C@H](c3ccc(S(C)(=N)=O)cc3)C3=C4CCC(=O)C=C4CCC3C1CC[C@@]2(O)C(F)(F)C(F)(F)F (stereo partly drawn) [Example 8, (11β,17β)-17-Hydroxy-11-[4-(RS-methylsulphonimidoyl)phenyl]-17-(pentafluoroethyl)estra-4,9-dien-3-one] | – | – | 100% | 100% | Abortion rate (pregnant rats; daily dose 0.15 mg/kg s.c. or p.o.): 40%; Abortion rate (pregnant rats; [3]): 100%; Abortion rate (pregnant rats; [4]): 100%; Abortion rate (pregnant rats; [5]): 100%

Further lines, with some results ahead:

Row | IC50 [1] | IC50 [2] | SMILES | Progesterone receptor A (PR-A) Efficacy [1] | Progesterone receptor B (PR-B) Efficacy [2] | further results
6 | 0.01 nM | 0.01 nM | CSc1ccc(-c2ccc([C@H]3C[C@@]4(C)[C@@H](CC[C@@]4(O)C(F)(F)C(F)(F)F)[C@@H]4CCC5=CC(=O)CCC5=C43)cc2)cc1 [Example 9, (11β,17β)-17-Hydroxy-11-[4′-(methylsulphanyl)biphenyl-4-yl]-17-(pentafluoroethy)estra-4,9-dien-3-one] | – | – | –
7 | 0.01 nM | – | CN(C)S(=O)(=O)c1ccc(-c2ccc([C@H]3C[C@@]4(C)[C@@H](CC[C@@]4(O)C(F)(F)C(F)(F)F)[C@@H]4CCC5=CC(=O)CCC5=C43)cc2)cc1 [Example 14, 4′-[(11β,17β)-17-hydroxy-3-oxo-17-(pentafluoroethyl)estra-4,9-dien-11-yl]-N,N-dimethylbiphenyl-4-sulphonamide] | – | – | –
8 | 0.1 nM | 0.2 nM | CN(C)S(=O)(=O)c1ccc([C@H]2C[C@@]3(C)[C@@H](CC[C@@]3(O)C(F)(F)C(F)(F)F)[C@@H]3CCC4=CC(=O)CCC4=C32)cc1 [Example 15, 4-[(11β,17β)-17-Hydroxy-3-oxo-17-(pentafluoroethy)estra-4,9-dien-11-yl]-N,N-dimethylbenzene Sulphonamide] | – | – | –
